The values that follow come from patent publication US12552753B2, “Methods and compositions for targeting Tregs using CCR8 inhibitors” (Nanjing Immunophage Biomedical Co., Ltd., priority 2020, dated 2026).

pIC50: −log10 of the molar value. Where a name gives a salt, the structure may show the parent alone. Read-outs that look alike come from different tables or passages of the source. A value given as a limit tells only on which side of the number the result lay.

This test deals with CCR8 (Homo sapiens, UniProt P51685). Description: Tango assay (Tango-CCR8-Gal4-CHO-K1 cells, CCL1-stimulated, ONE-Glo luminescence).
The mark [1] stands for this setting: Tango Assay IC50, Inhibition of CCR8 Tango cell in vitro.
[2] abbreviates: read-out: Tango Assay IC50, Inhibition of CCR8 Tango cell in vitro.

Chain of CCR8 (P51685 whole entry, the tested form may be a part): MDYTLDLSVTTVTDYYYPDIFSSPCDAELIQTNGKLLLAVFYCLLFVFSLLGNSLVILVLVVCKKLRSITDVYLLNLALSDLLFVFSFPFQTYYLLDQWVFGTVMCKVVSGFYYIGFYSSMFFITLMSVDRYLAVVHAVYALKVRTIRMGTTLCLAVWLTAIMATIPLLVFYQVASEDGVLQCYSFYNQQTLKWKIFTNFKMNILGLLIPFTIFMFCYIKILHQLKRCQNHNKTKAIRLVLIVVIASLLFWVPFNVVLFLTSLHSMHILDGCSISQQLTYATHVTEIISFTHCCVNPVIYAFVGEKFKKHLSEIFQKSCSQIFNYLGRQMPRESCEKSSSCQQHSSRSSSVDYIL
Procedure: The Tango cell line was used to monitor antagonists-mediated receptor inactivation.
Tango cells (Tango-CCR8-Gal4-CHO-K1 cells constructed by Genomeditech) were passaged in complete medium (F12K, 10% FBS, 1% penicillin-streptomycin, 4 μg/ml puromycin, 4 μg/ml blasticidin and 100 μg/ml hygromycin) in incubator (37° C., 5% CO2).
Twenty-four hours before the seed, cells were cultured in 10 or 15 cm dish at a density of 30% confluence in culture medium (F12K, 10% FBS, 1% penicillin-streptomycin).
Cells were suspended in starving medium (F12K, 1% FBS, 1% penicillin-streptomycin) before being seeded into black/clear 96 wells (1×10^4 cells/70 μl/well) and incubated for 6 hours (37° C., 5% CO2). Different concentration of compound, dissolved in DMSO, was into the 96-well plates, with 50 μl in each well, and incubation continued for 1 hour at 37° C.
After the incubation, the medium was removed and the 96-well plate was put in −80° C. freezer for an hour or longer. The plate and the ONE-Glo reagent (Promega, Catalog Number: E6110) which was frozen in −80° C., were taken out and rewarmed to room temperature. The ONE-Glo working reagent was prepared by mixing ONE-Glo reagent with F12K (no FBS) (1:2), and 40 μl ONE-Glo working reagent was added into each well. After incubating for 10 minutes at room temperature, the plate was read using microplate luminescence reader at 560 nm.
The microplate reader records luminescence in relative luminescence units (RLU).

For `Cc1ccccc1C(=O)Nc1ccc(S(=O)(=O)NC(C)c2cccc(C(=O)O)c2)cc1` (stereo not shown) [Compound 54, 3-(1-(4-(2-methylbenzamido)phe-nylsulfonamido)ethyl) benzoic acid], the pIC50 (usually the negative decadic logarithm of the IC50, by convention in mol/L) under setting [1] was less than 5.00.
Same read-out and setting: next, `Cc1ccccc1C(=O)Nc1ccc(S(=O)(=O)NC(C)c2nccs2)c2ccccc12` (stereo not shown) [Compound 56, 2-methyl-N-(4-(N-(1-(thiazol-2-yl)ethyl)sulfamoyl)naph-thalen-1-yl)benzamide]: 5.55.
On the same count and under the same terms, then `Cc1ccccc1C(=O)Nc1ccc(S(=O)(=O)NC(C)C2CCCCC2)c2ccccc12` (stereo not shown) [Compound 57, N-(4-(N-(1-cyclohexylethyl)sulfamo-yl)naphthalen-1-yl)-2-methylbenzamide], with 8.52; and `Cc1ccccc1C(=O)Nc1ccc(S(=O)(=O)N[C@@H](C)C2CCCCC2)c2ccccc12` [Compound 58, (S)-N-(4-(N-(1-cyclohexylethyl)sulfamo-yl)naphthalen-1-yl)-2-methylbenzamide], with 7.92; and `Cc1ccccc1C(=O)Nc1ccc(S(=O)(=O)N[C@H](C)C2CCCCC2)c2ccccc12` [Compound 59, (R)-N-(4-(N-(1-cyclohexylethyl)sulfamo-yl)naphthalen-1-yl)-2-methylbenzamide], with 8.80.
On the same count and under the same terms, next, `Cc1ccccc1C(=O)Nc1ccc(S(=O)(=O)NC(C)C2CCN(C(=O)OC(C)(C)C)CC2)c2ccccc12` (stereo not shown) [Compound 60, tert-butyl 4-(1-(4-(2-methylbenzamido)naph-thalene-1-sulfonamido)ethyl)piper-idine-1-carboxylate]: 6.80.
On to `CC(=O)N1CCC(C(C)NS(=O)(=O)c2ccc(NC(=O)c3ccccc3C)c3ccccc23)CC1` (stereo not shown) [Compound 62, N-(4-(N-(1-(1-acetylpiperidin-4-yl)ethyl)sulfamoyl)naph-thalen-1-yl)-2-methylbenzamide], for which the pIC50 under setting [1] was 6.15.
The same measure, in the same setting: then `Cc1ccccc1C(=O)Nc1ccc(S(=O)(=O)NC23CC(C2)C3)c2ccccc12` [Compound 63, N-(4-(N-(bicyclo[1.1.1]pentan-1-yl)sulfamoyl)naphthalen-1-yl)-2-methylbenzamide], with less than 5.00.
`CCN(C)C(=O)C12CC(NS(=O)(=O)c3ccc(NC(=O)c4ccccc4C)c4ccccc34)(C1)C2` [Compound 64, N-ethyl-N-methyl-3-(4-(2-methylbenzamido)naph-thalene-1-sulfonamido)bicyclo [1.1.1]pentane-1-carboxamide]: under setting [1], the pIC50 was less than 5.00.
Under setting [1], `Cc1ccccc1C(=O)Nc1ccc(S(=O)(=O)NC(C)C2CCN(C(=O)OC(C)(C)C)C2)c2ccccc12` (stereo not shown) [Compound 65, tert-butyl 3-(1-(4-(2-methylbenzamido)naph-thalene-1-sulfonamido)ethyl)pyr-rolidine-1-carboxylate] gave a pIC50 of 5.96.
Regarding `Cc1ccccc1C(=O)Nc1ccc(S(=O)(=O)NC(C)C2CCNC2)c2ccccc12` (stereo not shown) [Compound 66, 2-methyl-N-(4-(N-(1-(pyrrolidin-3-yl)ethyl)sulfamoyl)naph-thalen-1-yl)benzamide], the pIC50 under setting [2] was 7.07.
Under setting [1], `Cc1ccccc1C(=O)Nc1ccc(S(=O)(=O)NC(C)C2CCCCN2)c2ccccc12` (stereo not shown) [Compound 69A, 2-methyl-N-(4-(N-(1-(piperidin-2-yl)ethyl)sulfamoyl)naph-thalen-1-yl)benzamide] gave a pIC50 of less than 5.00.
`Cc1ccccc1C(=O)Nc1ccc(S(=O)(=O)NC(C)C2CCCCN2)c2ccccc12` (stereo not shown) [Compound 69B, 2-methyl-N-(4-(N-(1-(piperidin-2-yl)ethyl)sulfamoyl)naph-thalen-1-yl)benzamide]: the pIC50 under setting [2] was less than 5.00.
On to `Cc1ccccc1C(=O)Nc1ccc(S(=O)(=O)NC(C)c2cccc(NC(=O)OC(C)(C)C)c2)c2ccccc12` (stereo not shown) [Compound 71, tert-butyl (3-(1-(4-(2-methylbenzamido)naph-thalene-1-sulfonamido)ethyl)phe-nyl)carbamate], for which, under setting [1], the pIC50 is 6.83.
Same read-out and setting: then `Cc1ccccc1C(=O)Nc1ccc(S(=O)(=O)NC(C)c2cccc(N)c2)c2ccccc12` (stereo not shown) [Compound 72A, N-(4-(N-(1-(3-aminophenyl)ethyl)sul-famoyl)naphthalen-1-yl)-2-methylbenzamide hydrochloride], with 5.94.
`COc1cccc(C(C)NS(=O)(=O)c2ccc(NC(=O)c3ccccc3C)c3ccccc23)c1` (stereo not shown) [Compound 73, N-(4-(N-(1-(3-methoxyphenyl)ethyl)sul-famoyl)naphthalen-1-yl)-2-methylbenzamide] gave a pIC50 under setting [1] of 6.12.
Same read-out and setting: next, `Cc1ccccc1C(=O)Nc1ccc(S(=O)(=O)NC(C)CN2CCC(C)CC2)c2ccccc12` (stereo not shown) [Compound 74, 2-methyl-N-(4-(N-(1-(4-methylpiperidin-1-yl)propan-2-yl)sulfamoyl)naphthalen-1-yl)benzamide]: 6.19.
On the same count and under the same terms, next, `Cc1ccccc1C(=O)Nc1ccc(S(=O)(=O)NC(C)CC2CCCCC2)c2ccccc12` (stereo not shown) [Compound 75, N-(4-(N-(1-cyclohexylpropan-2-yl)sulfamoyl)naphthalen-1-yl)-2-methylbenzamide]: 8.12; `Cc1ccccc1C(=O)Nc1ccc(S(=O)(=O)NC(C)C2CCCCCC2)c2ccccc12` (stereo not shown) [Compound 76, N-(4-(N-(1-cycloheptylethyl)sulfamo-yl)naphthalen-1-yl)-2-methylbenzamide]: 8.74.
For `Cc1ccccc1C(=O)Nc1ccc(S(=O)(=O)NC(C)C2CC3CCC2CC3)c2ccccc12` (stereo not shown) [Compound 77, N-(4-(N-(1-(bicyclo[2.2.2]octan-2-yl)ethyl)sulfamoyl)naph-thalen-1-yl)-2-methylbenzamide], under setting [1], the pIC50 is 9.40.
The same measure, in the same setting: then `CC(NS(=O)(=O)c1ccc2[nH]cnc2c1)C1CCCCC1` (stereo not shown) [Compound 78, N-(1-cyclohexylethyl)-1H-benzo[d]imidazole-5-sulfonamide], with less than 5.00; and `CC(NS(=O)(=O)c1ccc2[nH]ncc2c1)C1CCCCC1` (stereo not shown) [Compound 79, N-(1-cyclohexylethyl)-1H-indazole-5-sulfonamide], with less than 6.00; and `CC(NS(=O)(=O)c1ccc2[nH]c(=O)[nH]c2c1)C1CCCCC1` (stereo not shown) [Compound 80, N-(1-cyclohexylethyl)-2-oxo-2,3-dihydro-1H-benzo[d]imidazole-5-sulfonamide], with less than 5.00.
The same measure, in the same setting: then `Cc1ccccc1C(=O)Nc1ccc(S(=O)(=O)NC(C)C(C)C)c2ccccc12` (stereo not shown) [Compound 81, 2-methyl-N-(4-(N-(3-methylbutan-2-yl)sulfamoyl)naphthalen-1-yl)benzamide], with 6.85; and `Cc1ccccc1C(=O)Nc1ccc(S(=O)(=O)NC(C)C(C)(C)C)c2ccccc12` (stereo not shown) [Compound 82, N-(4-(N-(3,3-dimethylbutan-2-yl)sulfamoyl)naphthalen-1-yl)-2-methylbenzamide], with 7.48.
`Cc1ccccc1C(=O)Nc1ccc(S(=O)(=O)NC(C)C(=O)N2CCC(C)CC2)c2ccccc12` (stereo not shown) [Compound 83, 2-methyl-N-(4-(N-(1-(4-methylpiperidin-1-yl)-1-oxopropan-2-yl)sulfamoyl)naphthalen-1-yl)benzamide] had a negative-log IC50 (pIC50) under setting [1] of less than 5.00.
`Cc1ccccc1C(=O)Nc1ccc(S(=O)(=O)NC(C)C23CC4CC(CC(C4)C2)C3)c2ccccc12` (stereo not shown) [Compound 84, N-(4-(N-(1-((3r,5r,7r)-adamantan-1-yl)ethyl)sulfamoyl)naph-thalen-1-yl)-2-methylbenzamide] gave a pIC50 under setting [1] of 9.70.
Still for that read-out and setting: next, `Cc1ccccc1C(=O)Nc1ccc(S(=O)(=O)NC2CCc3nc(N)sc3C2)c2ccccc12` (stereo not shown) [Compound 85, N-(4-(N-(2-amino-4,5,6,7-tetrahydrobenzo[d]thia-zol-6-yl)sulfamoyl)naphthalen-1-yl)-2-methylbenzamide]: 6.45; `CC(=O)N1CCOC(C(C)NS(=O)(=O)c2ccc(NC(=O)c3ccccc3C)c3ccccc23)C1` (stereo not shown) [Compound 86, N-(4-(N-(1-(4-acetylmorpholin-2-yl)ethyl)sulfamoyl)naph-thalen-1-yl)-2-methylbenzamide]: 5.64; `CC(=O)NC1CCc2cc(S(=O)(=O)NC(C)C3CCCCC3)ccc21` (stereo not shown) [Compound 87, N-(5-(N-(1-cyclohexylethyl)sulfam-oyl)-2,3-dihydro-1H-inden-1-yl)acetamide]: less than 5.00.
Still for that read-out and setting: next, `CC(NS(=O)(=O)c1ccc2c(c1)CCC2NC(=O)c1ccccc1)C1CCCCC1` (stereo not shown) [Compound 88, N-(5-(N-(1-cyclohexylethyl)sulfam-oyl)-2,3-dihydro-1H-inden-1-yl)benzamide]: 5.96.
Same read-out and setting: then `Cc1ccccc1C(=O)Nc1ccc(S(=O)(=O)NC2CCC23CCN(C(=O)OC(C)(C)C)CC3)c2ccccc12` (stereo not shown) [Compound 89, tert-butyl 1-(4-(2-methylbenzamido)naph-thalene-1-sulfonamido)-7-azaspiro[3.5]nonane-7-carboxylate], with 6.21.
In turn, `Cc1ccccc1C(=O)Nc1ccc(S(=O)(=O)NC2CCC23CCNCC3)c2ccccc12` (stereo not shown) [Compound 90, N-(4-(N-(7-azaspiro[3.5]nonan-1-yl)sulfamoyl)naphthalen-1-yl)-2-methylbenzamide] showed a pIC50 under setting [1] of less than 5.00.
On the same count and under the same terms, next, `CCCN1CCN(c2cc(NS(=O)(=O)c3ccc(NC(=O)c4ccccc4C)c4ccccc34)ccc2C(=O)O)CC1` [Compound 91, 4-(4-(2-methylbenzamido)naph-thalene-1-sulfonamido)-2-(4-propylpiperazin-1-yl)benzoic acid]: less than 5.00; `CCCN1CCN(c2c(F)cccc2NS(=O)(=O)c2ccc(NC(=O)c3ccccc3C)c3ccccc23)CC1` [Compound 92, N-(4-(N-(3-fluoro-2-(4-propylpiperazin-1-yl)phenyl)sulfamoyl)naphthalen-1-yl)-2-methylbenzamide]: less than 5.00.
On the same count and under the same terms, then `CCCN1CCN(c2ccc(C)c(NS(=O)(=O)c3ccc(NC(=O)c4ccccc4C)c4ccccc34)c2)CC1` [Compound 93, 2-methyl-N-(4-(N-(2-methyl-5-(4-propylpiperazin-1-yl)phenyl)sulfamoyl)naphthalen-1-yl)benzamide], with less than 5.00; and `CCCN1CCN(c2ccc(F)c(NS(=O)(=O)c3ccc(NC(=O)c4ccccc4C)c4ccccc34)c2)CC1` [Compound 95, N-(4-(N-(2-fluoro-5-(4-propylpiperazin-1-yl)phenyl)sulfamoyl)naphthalen-1-yl)-2-methylbenzamide], with less than 5.00.
